Several values for one entry are separate records, joined by “and”; a condition that tells them apart may be missing. Equal entries are not always repeated.
Test: Dog PK study #3 (Compound A PO once daily 5 days, 5/10/20 mg/kg; PK, body weight, hematology)
Format: in vivo, beagle dogs
Set-up: Plasma Concentration: unit not given here
Method: For the third dog pharmacokinetic study, three solutions of different concentrations of Compound A were prepared in 5% DMSO/15% PEG-400/80% (10% VE-TPGS) as outlined in Table 2E. The Compound A solutions were administered to animals orally (PO) once daily over a five-day period. Body weight was recorded prior to dosing, and detailed clinical observations were made prior to dosing and throughout the study, as needed.
Animals were divided into Day 1 and Day 5 sample collection groups, with animals in the Day 1 collection group having blood samples taken prior to dosing and at 0.25, 0.5, 1, 2, 4, 8, and 24 hours after dosing on day 1. Animals in the Day 5 collection group having blood samples taken prior to dosing and at 0.25, 0.5, 1, 2, 4, 8, and 24 hours after dosing on day 5. Study groups are outlined in Table 3D.
Blood samples (~0.3 mL) were collected on day according to the following schedule (0.25, 0.5, 1, 2, 4, 8, and 24 h) after day 5 administration of Compound A by venipuncture of peripheral veins except for the dosing vein, and EDTA-K2 was used as anticoagulant. Within 30 minutes of collection, the samples were centrifuged at approximately 2000 times g-force for 10 minutes at 4° C. to obtain blood plasma. The plasma samples were immediately divided into two aliquots (~75 μL each), transferred to a cryogenic vial, and stored in a freezer at −75±15° C. prior to analysis.
The concentration of Compound A in the blood plasma was determined through LC-MS as previously described. Briefly, the experiments were conducted on a DMPK-LCMS-14-SMBA Triple Quad 6500 Plus instrument with an ACQUITY UPLC BEH C18 1.7 μm (50×2.1 mm) column. The matrix was male beagle dog plasma potassium (K2) EDTA A gradient of 95% water (0.1% formic acid and 2 mM HCOONH4)/95% acetonitrile (0.1% formic acid and 2 mM HCOONH4) was used as the mobile phase. The sample flow rate was 0.6 mL/min.
The samples were then vortex-mixed for 10 minutes at 800 rpm and centrifuged for 15 minutes at 3220×g at 4° C. 50 μL aliquots of supernatant were transferred to a clean 96-well plate and centrifuged for 5 minutes at 3220×g at 4° C. Samples were then injected into the LC/MS/MS system for quantitative analysis.
The gathered data were used for pharmacokinetic calculations using T1/2, CO, AUClast, AUCinf, MRTinf, Cl, Vss, and Number of Points for Regression as parameters.
The cell composition (hematology) of blood samples was analyzed at day 5. Analyses identified the total number of white blood cells, neutrophils, lymphocytes, monocytes, eosinophils, basophils, and platelets in collected samples.

[1] = Day 1, 20 mg/kg dose PO, individual animals
[2] = Day 1, Group 1, individual animals
[3] = Day 1, Group 2, individual animals
[4] = Day 1, Group 3, individual animals
[5] = Day 2, Group 1, individual animals
[6] = Day 2, Group 2, individual animals
[7] = Day 2, Group 3, individual animals
[8] = Day 3, Group 1, individual animals
[9] = Day 3, Group 2, individual animals
[10] = Day 3, Group 3, individual animals
[11] = Day 4, Group 1, individual animals
[12] = Day 4, Group 2, individual animals
[13] = Day 4, Group 3, individual animals
[14] = Day 5, 5 mg/kg dose PO, individual animals

Cn1cc(-c2ccccc2)c(-c2cn(C)c(=O)c3[nH]c(-c4cnn(C(F)(F)F)c4)cc23)cc1=O [Compound A, 6-methyl-4-(1-methyl-2-oxo-5-phenyl-1,2-dihydropyridin-4-yl)-2-(1-(trifluoromethyl)-1H-pyrazol-4-yl)-1,6-dihydro-7H-pyrrolo[2,3-c]pyridin-7-one]
Cmax [1]: 6000 ng/mL | MRT0-inf [1]: 18.1 h | MRT0-last [1]: 10.1 h | Tlast [1]: 24.0 h | T½ [1]: 5.64 h and 11.7 h | Vz_F [1]: 3.09 L/kg and 2.89 L/kg | AUC0-last (Day 1, 20 mg/kg dose PO, mean): 67852 ng·h/mL | AUCExtra (Day 1, 20 mg/kg dose PO, mean): 16.1% | AUMCExtra (Day 1, 20 mg/kg dose PO, mean): 39.6% | Cl_F (Day 1, 20 mg/kg dose PO, mean): 4.59 mL/min/kg | Tlast (Day 1, 20 mg/kg dose PO, mean): 24.0 h | Vz_F (Day 1, 20 mg/kg dose PO, mean): 2.99 L/kg | Animal body weight [2]: 8.38 kg and 8.88 kg | Clinical Observation [2]: None | Animal Body Weight, Mean (Day 1, Group 1, mean): 8.63 kg | Animal body weight [3]: 8.36 kg and 9.37 kg | Clinical Observation [3]: None | Animal Body Weight, Mean (Day 1, Group 2, mean): 8.87 kg | Animal body weight [4]: 9.24 kg and 8.79 kg | Clinical Observation [4]: None | Animal Body Weight, Mean (Day 1, Group 3, mean): 9.02 kg | Animal body weight [5]: 8.44 kg and 9.33 kg | Clinical Observation [5]: None | Animal Body Weight, Mean (Day 2, Group 1, mean): 8.89 kg | Animal body weight [6]: 9.63 kg and 8.65 kg | Clinical Observation [6]: None | Animal Body Weight, Mean (Day 2, Group 2, mean): 9.14 kg | Animal body weight [7]: 9.44 kg and 9.25 kg | Clinical Observation [7]: None | Animal Body Weight, Mean (Day 2, Group 3, mean): 9.35 kg | Animal body weight [8]: 8.45 kg and 9.29 kg | Clinical Observation [8]: None | Animal Body Weight, Mean (Day 3, Group 1, mean): 8.87 kg | Animal body weight [9]: 9.5 kg and 8.69 kg | Clinical Observation [9]: None | Animal Body Weight, Mean (Day 3, Group 2, mean): 9.10 kg | Animal body weight [10]: 9.32 kg and 8.96 kg | Clinical Observation [10]: None | Animal Body Weight, Mean (Day 3, Group 3, mean): 9.14 kg | Animal body weight [11]: 8.45 kg and 9.29 kg | Clinical Observation [11]: None | Animal Body Weight, Mean (Day 4, Group 1, mean): 8.87 kg | Animal body weight [12]: 9.43 kg and 8.6 kg | Clinical Observation [12]: None | Animal Body Weight, Mean (Day 4, Group 2, mean): 9.02 kg | Animal body weight [13]: 9.13 kg and 8.6 kg | Clinical Observation [13]: None | Animal Body Weight, Mean (Day 4, Group 3, mean): 8.87 kg | Plasma Concentration (Day 5, 5 mg/kg dose PO, time 1, individual animals): 1120 and 910 | Plasma Concentration (Day 5, 5 mg/kg dose PO, time 1, mean): 1015 | Plasma Concentration (Day 5, 5 mg/kg dose PO, time 2, individual animals): 1270 and 1040 | Plasma Concentration (Day 5, 5 mg/kg dose PO, time 2, mean): 1155 | Plasma Concentration (Day 5, 5 mg/kg dose PO, time 4, individual animals): 1180 and 878 | Plasma Concentration (Day 5, 5 mg/kg dose PO, time 4, mean): 1029 | Plasma Concentration (Day 5, 5 mg/kg dose PO, time 8, individual animals): 823 and 650 | Plasma Concentration (Day 5, 5 mg/kg dose PO, time 8, mean): 737 | Plasma Concentration (Day 5, 5 mg/kg dose PO, time 24, individual animals): 400 | AUC0-last [14]: 11297 ng·h/mL | AUC(0-inf) [14]: 25554 ng·h/mL and 12279 ng·h/mL | AUCExtra [14]: 30.4% and 8.00% | AUMCExtra [14]: 65.9% and 26.4% | Cl_F [14]: 3.26 mL/min/kg and 6.79 mL/min/kg | Cmax [14]: 1040 ng/mL | MRT0-last [14]: 8.08 h | Tlast [14]: 24.0 h | T½ [14]: 13.5 h and 6.42 h | Vz_F [14]: 3.82 L/kg and 3.77 L/kg | AUC0-last (Day 5, 5 mg/kg dose PO, mean): 14544 ng·h/mL | AUCExtra (Day 5, 5 mg/kg dose PO, mean): 19.2% | AUMCExtra (Day 5, 5 mg/kg dose PO, mean): 46.2% | Cl_F (Day 5, 5 mg/kg dose PO, mean): 5.02 mL/min/kg | Tlast (Day 5, 5 mg/kg dose PO, mean): 24.0 h | Vz_F (Day 5, 5 mg/kg dose PO, mean): 3.79 L/kg | Basophils (Day 5, 5 mg/kg/day (mean), range 0.00-0.19): 0.08 10^3/μL | Eosinophils (Day 5, 5 mg/kg/day (mean), range 0.00-1.24): 0.38 10^3/μL | Monocytes (Day 5, 5 mg/kg/day (mean), range 0.11-1.08): 0.31 10^3/μL | Lymphocytes (Day 5, 5 mg/kg/day (mean), range 1.42-3.76): 2.72 10^3/μL
